Columns and labels:
Format in all cases: in vivo, mouse
[1] = system: breast carcinoma xenografts; experiment: BIWI 1 (five daily doses) combination with paclitaxel in human breast carcinoma xenograft model
Description: BIWI was given i.v. into the tail vein at doses of 50 μg DM1/kg/day or 100 μg DM1/kg/day for five consecutive days. Paclitaxel (Taxol®) was given i.v. at 20 or 10 mg/kg, doxorubicin (Adriamycin®) at 6 or 4 mg/kg only on the first day of the treatment period, in each case 4 hours after BIWI 1 treatment. In mice bearing breast carcinoma xenografts with a volume of approximately 100 mm3.

[2] = system: MDA-MB-453 tumors; experiment: BIWI 1 combination with capecitabine in nude mice xenografted with MDA-MB-453 tumors; conditions: BIWI 1 75 μg/kg DM1 i.v. q7dx3
Description: The xenograft model MDA-MB-453 was handled as in Section 2.8.
BIWI 1 solution (protein concentration 2.95 mg/ml, 53.6 μg DM1/ml, 3.7 molecules DM1/molecule antibody) was diluted in PBS to a DM1 concentration of 75 μg/kg body weight. […] The antibody solution was injected into the tail vein with an injection volume of 200 μl for a 25 g mouse. In the control groups without BIWI 1 treatment animals were injected i.v. with PBS. BIWI 1 was given i.v. into the tail vein at a dose of 75 μg DM1/kg once weekly, for three weeks. Capecitabine (150 mg tablets, Roche) was given intragastrically (by gavage needle, as a suspension in water) at a dose of 375 or 500 mg/kg during three weeks on 5 consecutive days per week.
To assess the efficacy of BIMI 1 in combination with capecitabine, non-curative doses of both drugs were tested as single agents or in combination in nude mice xenografted with MDA-MB453 tumors.
For the combinations experiments BIWI 1 with 75 μg/kg DM1 was combined with 375 or 500 mg/kg capecitabine.

[3] = system: A431 tumors; experiment: BIWI 1 monotherapy in A431 xenografted nude mice; conditions: five consecutive days
Description: (§1) In vivo anti-tumor efficacy of BIWI 1 was tested in three nude mouse xenograft models applying antigen-positive human tumors: A431 (ATCC # CRL 1555; epidermoid carcinoma of the vulva), FaDu (ATCC # HTB 43; squamous cell carcinoma of the pharynx), and MDA-MB 453 (ATCC # HTB-131; breast carcinoma). The cells were received from ATCC and cultured in RPMI1640 medium containing 10% fetal calf serum and supplements. 1×10^6 tumors cells were transplanted subcutaneously into the right flank of 6 week old female NMRI-nu/nu mice. Tumor growth was monitored by measuring tumor size. A tumor response was rated as complete response when the tumor completely disappeared at any time after start of treatment. The response was rated as partial response when the tumor volume decreased after treatment but thereafter started regrowing. The tolerability of the treatment was monitored by measuring mouse weight during the observation period.
Mice were randomised into the following treatment groups (treatment/initial mean tumor volume/tumor volume range/number of mice): • Group 1: Control (PBS)/185±217 mm^3/19-424 mm^3/5 mice. • Group 2: BIWA 4 (21 mg/kg/d)/133±115 mm^3/42-302 mm^3/5 mice. • Group 3: BIWI 1 (2.1 mg/kg/d)/107±63 mm^3/42-205 mm^3′/5 mice. • Group 4: BIWI 1 (7 mg/kg/d)/132±73 mm^3/42-205 mm^3/5 mice. • Group 5: BIWI 1 (21 mg/kg/d)/107±[…]/42-205 mm^3/5 mice.
(§2) Groups of 5 mice were treated with 2.1 mg/kg/d BIWI 1, 7 mg/kg/d BIWI 1, 21 mg/kg/d BIWI 1, and 21 mg/kg/d control antibody, respectively. Treatment consisted of i.v. injections of BIWI 1 given on five consecutive days, starting at day 1.

[4] = system: FaDu tumors; experiment: BIWI 1 combination therapy with paclitaxel in the FaDu xenograft model
Description: as §1
Mice were randomised into the following treatment groups (treatment/initial mean tumor volume/tumor volume range/number of mice): • Group 1: Control (PBS)/197 mm^3/65-402 mm^3/8 mice • Group 2: Paclitaxel/182 mm^3 /65%-302 mm^3/8 mice • Group 3: BIWI 1/208 mm^3 /65-382 mm^3/8 mice • Group 4: BIWI 1+paclitaxel/159 mm^3 /79-335 mm^3 /7 mice
Treatment consisted either of five i.v. injections of BIWI 1 (7 mg/kg corresponding to 100 μg/kg DM1) at day 1, 3, 5, 8, 10, or of six i.p. injections of paclitaxel (10 mg/kg) at day 2, 4, 6, 9, 11, 13, respectively, or a combination thereof. Control animals were treated with PBS.
One tumor completely dissappeared during treatment and the animal remained tumor free until the end of the observation period.

[5] = system: FaDu tumors; experiment: BIWI 1 monotherapy in FaDu xenografted nude mice; conditions: five consecutive days
Description: as §1
Mice were randomised into the following treatment groups (treatment/initial mean tumor volume/tumor volume range/number of mice): • Group 1: Control (PBS)/142±82 mm^3/34-268 mm^3 /8 mice. • Group 2: BIWA 4 (21 mg/kg/d)/134±86 mm^3/42-268 mm^3/6 mice. • Group 3: BIWI 1 (2.1 mg/kg/d) 149±96 mm^3/50-268 mm^3/6 mice. • Group 4: BIWI 1 (7 mg/kg/d)/132±97 mm^3 42-268 mm^3/6 mice. • Group 5: BIWI 1 (21 mg/kg/d)/129±74 mm^3/50-231 mm^3/6 mice.
as §2, with “6” for “5”, “1. […] The remaining 2 tumors grew similar to untreated control tumors.” for “1.”

[6] = 7 mg/kg/d or 21 mg/kg/d BIWI 1 i.v.
[7] = BIWI 1 7 mg/kg i.v. x5, paclitaxel 10 mg/kg i.p. x6, or both

Substance: BIWI 1
- complete tumor regressions ([1]; BIWI 1 monotherapy 50 μg DM1/kg/day i.v., five consecutive days): 2/12
- T/C (median relative tumor volumes of treated versus control groups) ([1]; BIWI 1 monotherapy 50 μg DM1/kg/day x5): 19%
- Complete Regression ([1]; BIWI 1 monotherapy 100 μg DM1/kg/day i.v., five consecutive days, tumors approx. 100 mm3): 12/12
- GDF4 [2]: 2.6
- T4T [2]: 26.9 days
- T/C (d25) [2]: 31%
- tumors with partial response ([3]; 2.1 mg/kg/d BIWI 1 i.v., 5 mice): 2
- complete responses ([3]; 2.1 mg/kg/d BIWI 1 i.v., no regrowth until day 134): 3/5
- day on which tumors disappeared [3, 6]: ~17 days
- tumor regrowth until end of observation period (day 134) [3, 6]: No tumor regrowth
- tumor response [3, 6]: all tumors responded completely
- Initial Tumor Doubling Time ([4]; BIWI 1 7 mg/kg i.v. day 1,3,5,8,10, paclitaxel 10 mg/kg i.p. day 2,4,6,9,11,13, or both): 7 days
- Complete Regression [4, 7]: 0/8
- Growth Delay Factor [4, 7]: 0.75
- partial response ([4]; BIWI 1 monotherapy 7 mg/kg i.v. x5): 3/8
- tumor volume doubling time ([5]; 2.1 mg/kg/d BIWI 1 i.v.): approximately 5 days
- complete responses ([5]; 7 mg/kg/d BIWI 1 i.v.): 1/6
- partial responses ([5]; 7 mg/kg/d BIWI 1 i.v.): 3/6
- day on which tumors disappeared ([5]; 21 mg/kg/d BIWI 1 i.v.): ~24 days
- tumor regrowth until end of observation period (day 107) ([5]; 21 mg/kg/d BIWI 1 i.v.): No tumor regrowth
- tumor response ([5]; 21 mg/kg/d BIWI 1 i.v.): all tumors responded completely

From patent publication US20050244413A1, “Compositions and methods for treating cancer using cytotoxic CD44 antibody immunoconjugates and chemotherapeutic agents” (priority 2002, published 2005)
